The text below walks through data of patent US10195196B2, “1,4-disubstituted pyridazine analogs there of and methods for treating SMN-deficiency-related conditions” (NOVARTIS AG, priority 2012, dated 2019).

The term EC50 denotes the concentration giving half of the maximal effect. A higher EC50 goes with weaker potency.

The structures appear in SMILES notation.

The subject of the test is SMN protein. In words: cellular SMN ELISA (SMN protein elevation). It is filed as cell-based. The following applies: ELISA condition 2: compound concentration 100 pM-10 uM, myoblast cell line from SMNdelta7 mouse model, 24 hours treatment; for SMN activity Fold: fold activation over DMSO control. Put shortly:
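Readout is fold SMN elevation versus DMSO plus EC50, measured by anti-SMN capture ELISA with 450 nm absorbance. Lysates came from a myoblast line of the SMNdelta7 mouse model after 24 h compound exposure, with dose ranges of 20 nM–10 μM (condition 1) or 100 pM–10 μM (condition 2).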

In the case of `CN(c1ccc(-c2cc3ccc(C(F)F)cc3cc2O)nn1)C1CC(C)(C)NC(C)(C)C1` [Example 24-10, 7-(difluoromethyl)-3-(6-(methyl(2,2,6,6-tetramethylpiperidin-4-yl)amino)pyridazin-3-yl)naphthalen-2-ol], the response was half-maximal at 113 nM (EC50) and the “SMN activity Fold” value stood at 3.14 Fold.
For `CN(c1ccc(-c2cc3ccc(OC(C)(C)CCO)cc3cc2O)nn1)C1CC(C)(C)NC(C)(C)C1` [Example 24-11, 7-((4-hydroxy-2-methylbutan-2-yl)oxy)-3-(6-(methyl(2,2,6,6-tetramethylpiperidin-4-yl)amino)pyridazin-3-yl)naphthalen-2-ol] the same measures were 133 nM and 2.54 Fold.
The corresponding values for `CN(c1ccc(-c2cc3ccc(OCCC(C)(C)O)cc3cc2O)nn1)C1CC(C)(C)NC(C)(C)C1` [Example 24-12, 7-(3-hydroxy-3-methylbutoxy)-3-(6-(methyl(2,2,6,6-tetramethylpiperidin-4-yl)amino)pyridazin-3-yl)naphthalen-2-ol] are 70 nM and 2.80 Fold.
The corresponding values for `CN(c1ccc(-c2c(O)cc(-c3cn[nH]c3)cc2O)nn1)C1CC(C)(C)NC(C)(C)C1` [Example 25-1, 2-(6-(methyl(2,2,6,6-tetramethylpiperidin-4-yl)amino)pyridazin-3-yl)-5-(1H-pyrazol-4-yl)benzene-1,3-diol] are 84 nM and 2.58 Fold.
For the molecule `COc1cc(-c2cn[nH]c2)cc(O)c1-c1ccc(N(C)C2CC(C)(C)NC(C)(C)C2)nn1` [Example 25-2, 3-methoxy-2-(6-(methyl(2,2,6,6-tetramethylpiperidin-4-yl)amino)pyridazin-3-yl)-5-(1H-pyrazol-4-yl)phenol], the half-maximal effective concentration (EC50) is 8 nM and the “SMN activity Fold” value came to 3.44 Fold.
As for `CC1(C)CC(Nc2ccc(-c3c(O)cc(-c4cn[nH]c4)cc3OC(F)(F)F)nn2)CC(C)(C)N1` [Example 25-3, 5-(1H-pyrazol-4-yl)-2-(6-((2,2,6,6-tetramethylpiperidin-4-yl)amino)pyridazin-3-yl)-3-(trifluoromethoxy)phenol], the half-maximal effective concentration (EC50) is 119 nM and the “SMN activity Fold” value stood at 2.39 Fold.
Turning to `CN(c1ccc(-c2c(O)cc(-c3cnn(C)c3)cc2OC(F)(F)F)nn1)C1CC(C)(C)NC(C)(C)C1` [Example 25-4, 2-(6-(methyl(2,2,6,6-tetramethylpiperidin-4-yl)amino)pyridazin-3-yl)-5-(1-methyl-1H-pyrazol-4-yl)-3-(trifluoromethoxy)phenol], it took 199 nM to reach a half-maximal effect (EC50) and the “SMN activity Fold” value is given as 2.30 Fold.
For `CN(c1ccc(-c2c(O)cc(-c3cn[nH]c3)cc2OC(F)(F)F)nn1)C1CC(C)(C)NC(C)(C)C1` [Example 25-5, 2-(6-(methyl(2,2,6,6-tetramethylpiperidin-4-yl)amino)pyridazin-3-yl)-5-(1H-pyrazol-4-yl)-3-(trifluoromethoxy)phenol] the same measures were 96 nM and 2.36 Fold.
As to `CN(c1ccc(-c2c(O)cc(-c3ccn(C)c(=O)c3)cc2OC(F)(F)F)nn1)C1CC(C)(C)NC(C)(C)C1` [Example 25-6, 4-(3-hydroxy-4-(6-(methyl(2,2,6,6-tetramethylpiperidin-4-yl)amino)pyridazin-3-yl)-5-(trifluoromethoxy)phenyl)-1-methylpyridin-2(1H)-one], a half-maximal response (EC50) required 107 nM and the “SMN activity Fold” value is reported as 2.16 Fold.
As to `COc1cc(-c2cnn(C)c2)cc(O)c1-c1ccc(N(C)C2CC(C)(C)NC(C)(C)C2)nn1` [Example 26-1, 3-methoxy-2-(6-(methyl(2,2,6,6-tetramethylpiperidin-4-yl)amino)pyridazin-3-yl)-5-(1-methyl-1H-pyrazol-4-yl)phenol], the EC50 is 14 nM and the “SMN activity Fold” value was 3.18 Fold.
For `COc1cc(-c2cnc3n2CCCC3)cc(O)c1-c1ccc(N(C)C2CC(C)(C)NC(C)(C)C2)nn1` [Example 26-2, 3-methoxy-2-(6-(methyl(2,2,6,6-tetramethylpiperidin-4-yl)amino)pyridazin-3-yl)-5-(5,6,7,8-tetrahydroimidazo[1,2-a]pyridin-3-yl)phenol] the same measures were 97 nM and 2.61 Fold.
Consider `COc1cc(-c2cccnc2)cc(O)c1-c1ccc(N(C)C2CC(C)(C)NC(C)(C)C2)nn1` [Example 26-3, 3-methoxy-2-(6-(methyl(2,2,6,6-tetramethylpiperidin-4-yl)amino)pyridazin-3-yl)-5-(pyridin-3-yl)phenol], for which the EC50 was determined as 47 nM and the “SMN activity Fold” value came to 2.70 Fold.
Turning to `COc1cc(-c2cnn(C3CCCC3)c2)cc(O)c1-c1ccc(N(C)C2CC(C)(C)NC(C)(C)C2)nn1` [Example 26-4, 5-(1-cyclopentyl-1H-pyrazol-4-yl)-3-methoxy-2-(6-(methyl(2,2,6,6-tetramethylpiperidin-4-yl)amino)pyridazin-3-yl)phenol], the response was half-maximal at 649 nM (EC50) and the “SMN activity Fold” value is 2.22 Fold.
For `COc1cccc(-c2cc(O)c(-c3ccc(N(C)C4CC(C)(C)NC(C)(C)C4)nn3)c(OC)c2)c1` [Example 26-5, 3′,5-Dimethoxy-4-(6-(methyl(2,2,6,6-tetramethylpiperidin-4-yl)amino)pyridazin-3-yl)-[1,1′-biphenyl]-3-ol] the same measures were 313 nM and 2.14 Fold.
The corresponding values for `Cc1cnc(-c2cc(O)c(-c3ccc(N(C)C4CC(C)(C)NC(C)(C)C4)nn3)c(OCc3ccccc3)c2)o1` [Example 27-1, 3-(benzyloxy)-2-(6-(methyl(2,2,6,6-tetramethylpiperidin-4-yl)amino)pyridazin-3-yl)-5-(5-methyloxazol-2-yl)phenol] are 305 nM and 2.35 Fold.
For `CCOc1cc(-c2ncc(C)o2)cc(O)c1-c1ccc(N(C)C2CC(C)(C)NC(C)(C)C2)nn1` [Example 27-2, 3-ethoxy-2-(6-(methyl(2,2,6,6-tetramethylpiperidin-4-yl)amino)pyridazin-3-yl)-5-(5-methyloxazol-2-yl)phenol] the same measures were 165 nM and 2.83 Fold.
In the case of `Cc1cnc(-c2cc(O)c(-c3ccc(N(C)C4CC(C)(C)NC(C)(C)C4)nn3)c(OCC3CC3)c2)o1` [Example 27-3, 3-(cyclopropylmethoxy)-2-(6-(methyl(2,2,6,6-tetramethylpiperidin-4-yl)amino)-pyridazin-3-yl)-5-(5-methyloxazol-2-yl)phenol], it took 619 nM to reach a half-maximal effect (EC50) and the “SMN activity Fold” value came to 2.75 Fold.
Take `Cc1nc2cc(-c3ccc(N(C)C4CC(C)(C)NC(C)(C)C4)nn3)c(O)cc2[nH]1` [Example 28-1, 2-methyl-5-(6-(methyl(2,2,6,6-tetramethylpiperidin-4-yl)amino)pyridazin-3-yl)-1H-benzo[d]imidazol-6-ol]: it took 475 nM to reach a half-maximal effect (EC50) and the “SMN activity Fold” value is given as 3.41 Fold.
For `CN(c1ccc(-c2ccc(Cl)cc2O)nn1)C1CC(C)(C)NC(C)(C)C1` [Example 29-1, 5-chloro-2-(6-(methyl(2,2,6,6-tetramethylpiperidin-4-yl)amino)pyridazin-3-yl)phenol] the same measures were 113 nM and 2.49 Fold.
